Tests used:
[1] = tested on: PMA/Ionomycin-induced NF-κB reporter gene activity; test: NF-κB luciferase reporter gene assay, PMA/Ionomycin-stimulated HEK293-NF-κB-luc cells; format: cell-based; conditions: for inhibition of PMA/Ionomycin-induced NF-κB luciferase activity: HEK293; for IC50: Table II, read-out: IC50, Inhibition of antigen receptor-mediated Nf-κB
Excerpt: The strategy for compound library screening entailed using phorbol ester (phorbol myristic acetate [PMA]) and Ca^2+-ionophore Ionomycin to achieve PKC activation, mimicking the initiating events in the antigen receptor pathway. For convenience, we used HEK293 epithelial cells, in which it has previously been shown by siRNA-mediated gene silencing and transfection of dominant-negative mutants that PMA/Ionomycin-induced NF-κB activation is dependent on CARMA1, Bcl-10, and MALT. HEK293 cells were stably transfected with a luciferase reporter gene driven by a NF-κB responsive promoter, and the responsiveness of this integrated promoter to various NF-κB inducing stimuli was confirmed, including PMA/Ionomycin and TNF. Using these cells, 96- and 384-well plate-based high throughput screening (HTS) assays were established, with good assay performance characteristics (Z′>0.5) (PubChem AID=1384). We initially screened 53,280 chemical compounds at an average concentration of 5 μM, of which 519 primary hits were obtained (based on cut-off of 50% inhibition). Of these, 248 confirmed upon repeat testing (FIG. 1).
Cell engineering. HEK293 cells were co-transfected with pUC13-4xNFκB-Luc and p-TK-puromycin-resistance plasmids. Stable clones were selected by culture in Dulbecco's Modified Eagle's Media (InVitrogen) supplemented with 10% heat-inactivated fetal bovine serum (FBS) (Hyclone), 1% v/v penicillin-streptomycin (InVitrogen) containing 1 μg/mL puromycin. Individual clones were tested for responsiveness to PMA/Ionomycin- and to TNF-induced NF-κB reporter gene activity, and a clone was selected for HTS.
HTS. NF-κB-luciferase expressing HEK293 cells were seeded at […] per well in white 96 well plates (Greiner Bio-One) in 90 μl of DMEM and incubated overnight. 10 μl of compound-containing solution was added to each well (final 1.5 μg/mL in 1% DMSO) using a liquid handler (Biomek™ FX; Beckman Coulter). After 2 h incubation, cells were stimulated using 11 μl of a PMA (final 100 ng/mL; Calbiochem) and ionomycin (final 50 ng/mL; Calbiochem) in DMEM. Cell plates were incubated for 16 h before media was removed and 40 μl of 0.5× passive lysis buffer (Promega Corp.) was added to cell plates. Plates were allowed to stand at room temperature for at least 15 minutes before adding 40 μl of 0.125× luciferin substrate (Promega Corp.) to each well. Plates were analyzed within 30 seconds with a Criterion Analyst™ using the luminescence method (0.1 second read/well).
Several compounds synthesized by the methods described herein were tested for their efficacy at inhibiting Nf-κB activation.

[2] = tested on: TNF-induced NF-κB reporter gene activity; test: TNF-induced NF-κB reporter counter-screen in HEK293-NFκB-Luc cells; format: cell-based; conditions: TNF 10 ng/mL; CID-2858522 at concentrations as high as 4 μM
Method: (§1) (A) Structures of two hit compounds, CID-2858522 (left) and CID-2998237 (right) are shown; (B, C) 293-NF-κB-luc cells were pretreated for 2 hrs with various concentration of either CID-2858522 (B) or CID-29982387 (C) and then stimulated with TNF (10 ng/mL) or PMA/lonomycin (10 ng/mL; 5 ng/mL) for 16 h. Luciferase activity was measured and data were expressed as a percentage relative to control treatment with DMSO only (mean±SD; n=3). (D) 293-NF-κB-luc cells were pretreated for 2 h with various concentrations of CID-2858522 or CID-2998237, then stimulated with PMA/lonomycin for 16 h. IL-8 release into the medium was measured, expressing data as a percentage relative to control cultures treated with DMSO (mean±SD; n=3). (E) 293-NF-κB-luc cells were pretreated with CID-2858522 and then stimulated with PDBu for 16 h, IL-8 production and NF-κB luciferase activity were measured as above. (F) 293-NF-κB-luc cells were pretreated for 2 h with various concentrations of CID-2858522 or a PKC inhibitor (Bisindolylmaleimide I) at 1 μM followed by PMA/Ionomycin (10 ng/mL) stimulation for 2 h, then p65-DNA-binding activity was measured in nuclear extracts (10 μg protein), expressing data as fold-increase relative to unstimulated cells (mean±SD; n=3).
Counter Screening and Secondary Assays. […] Luciferase activity was measured using Britelite kit (Perkin Elmer). […]

[3] = tested on: PMA/Ionomycin-stimulated IL-8 production; test: PMA/Ionomycin-stimulated IL-8 production by HEK293 reporter cells (ELISA); format: cell-based, human; conditions: CID-2998237 at concentrations as high as 4 μM
Method: as §1
Lymphokine measurements. Human IL-2 or IL-8 levels in culture medium were measured by Enzyme-Linked Immunosorbent Assays (ELISAs), using BD OptEIA ELISAs (BD Biosciences, San Diego, Calif.), according to the manufacturer's protocol, using 96-well ELISA plates (BD Biosciences) and measuring absorbance within 30 minutes of initiating reactions using a SpectraMax 190 spectrophotometer (Molecular Devices).

Row | Compound | IC50 [1] [nM] | inhibition of PMA/Ionomycin-induced NF-κB luciferase activity [1] | further results
1 | COC(=O)C1=C(CN2CCCc3ccccc32)NC(=O)NC1c1ccc(F)cc1 (centres unmarked) [CID-2998237] |  | less potent | inhibition of TNF-induced NF-κB reporter gene activity [2]: some modest inhibition; effect on PMA/Ionomycin-induced IL-8 production [3]: minimal effect
2 | COc1c(C(C)(C)C)cc(C(=O)Cn2c(NCCCO)nc3cc(C)c(C)cc32)cc1C(C)(C)C [Compound 32, 1-(3,5-di-tert-butyl-4-methoxyphenyl)-2-(2-(3-hydroxypropylamino)-5,6-dimethyl-1H-benzo[d]imidazol-1-yl)ethanone] | 70 |  | 
3 | z-ITED-fmk [reference compound] |  | significantly inhibit | 

Further lines, with some results ahead:

Row | IC50 [1] [nM] | Compound | inhibition of PMA/Ionomycin-induced NF-κB luciferase activity [1] | further results
4 | 250 | COCCCNc1nc2cc(C)c(C)cc2n1CC(=O)c1cc(C(C)(C)C)c(O)c(C(C)(C)C)c1 [Compound 33, 2-(2-(3-methoxypropylamino)-5,6-dimethyl-1H-benzo[d]imidazol-1-yl)-1-(3,5-di-tert-butyl-4-hydroxyphenyl)ethanone] |  | 
5 | 250 | COCCCNc1nc2cc(C)c(C)cc2n1CC(=O)c1cc(C(C)(C)C)c(OC)c(C(C)(C)C)c1 [Compound 34, 2-(2-(3-methoxypropylamino)-5,6-dimethyl-1H-benzo[d]imidazol-1-yl)-1-(3,5-di-tert-butyl-4-methoxyphenyl)ethanone] |  | 
6 | 100 | CCCCNc1nc2cc(C)c(C)cc2n1CC(=O)c1cc(C(C)(C)C)c(O)c(C(C)(C)C)c1 [Compound 40, 1-(3,5-di-tert-butyl-4-hydroxyphenyl)-2-(2-(butylamino)-5,6-dimethyl-1H-benzo[d]imidazol-1-yl)ethanone] |  | 

From US20090247520A1, “INHIBITORS OF ANTIGEN RECEPTOR-INDUCED NF-kappa B ACTIVATION” (The Burnham Institute for Medical Research, priority 2008, published 2009)
